Reference: paper PMC7250896, “Inhibition of mitochondrial complex I by the novel compound FSL0260 enhances high salinity-stress tolerance in Arabidopsis thaliana” (Scientific Reports, 2020)

Tested on: T1, mitochondrial complex I
T1 construct: native multi-subunit complex in sonicated mitochondria isolated from potato tuber; with Gamma-CA (complex I subunit detected in the pull-down)
Experiment: deamino-NADH oxidation ([…] nm) in sonicated mitochondria; OCR; pull-down with FSL0260-fixed agarose beads
Format: biochemical, Solanum tuberosum

SMILES: Cc1ccc(S(=O)(=O)OCC2Oc3ccccc3C=C2C[n+]2ccccc2)cc1 (stereo not shown) [FSL0260]
- IC50: 45.1 µM
